Reference: patent US20230242474A1, “LIPID COMPOUND AND THE COMPOSITION THEREOF” (GUANGZHOU RIBOBIO CO., LTD, priority 2020, published 2023)
“And” between values parts separate entries of the source, which are not always exact repeats. Equal values may be shown once. Read-outs that look alike come from different tables or passages of the source.

Columns and labels:
[1] = tested on: S protein specific IgG antibody; type: in vivo, BALB/c mice; settings: 14 days after the second immunization, LNP with S protein mRNA, FIG. 5
BALB/c mice = experiment: Transfection efficiency: in vivo bioluminescence of luciferase mRNA encapsulated by different LNP; settings: for Average fluorescence intensity, Leg (intramuscular injection) / Average fluorescence intensity, Liver (tail vein injection): 10 μg/mice; for Total photons number, Leg: intramuscular injection
Procedure: All animals were kept in adaptive feeding for more than 7 days before experiments, free to uptake food and drink water during experimental period, illumination 12/12 h alternating light and dark, room temperature was 20-26° C., humidity was 40-70%.
Experimental method: female BALB/c mice, encapsulated luciferase mRNA with different LNP by four different administrations which included subcutaneous injection (under the armpit), tail vein injection, intraperitoneal injection, intramuscular injection (the tibialis anterior muscle of mouse hind leg); 3, 6, 24, 48 h after administration, applied in vivo fluorescence imaging system (brand: Bruker, model: XTREME) for bioluminescence detection, the specific steps were as follows: substrate preparation: took appropriate amount of substrate Luciferin (brand: Promega) and added saline to make a 10 mg/ml solution, avoided light, injected 100 μl solution into each mouse intraperitoneally. […] Put the anesthetized mouse into machine, set the bioluminescence setting and took the photos, captured the photograph and then adjusted the upper and lower values of photograph, then collected data on the concentrated distribution of fluorescence (e.g., fluorescence intensity, average photons number, and total photons number) and processed data. Statistical analysis: the in vivo imaging outcome were shown in the fluorescence intensity or average of total photons number of different animal in the same tested group, which were used to judge whether the fluorescence intensity or total photon number of luciferase mRNA encapsulated by different LNP were high or low.
The fluorescence intensity and total photons number reflects the transfection efficiency of LNP, the value is higher, referring to the efficiency of delivering encapsulated substance into cell by LNP is higher.

[2] = type: physicochemical
[3] = tested on: T lymphocytes secreting INFγ; experiment: ELISPOT count of T lymphocytes secreting INFγ after immunization with LNP-encapsulated SARS-CoV-2 S protein mRNA; type: in vivo, BALB/c mice; settings: S protein (1 μg) stimulation, intramuscular Day 0 and Day 14, spleens after 7 days
Wistar rats = experiment: Safety evaluation of LNP: acute toxicity test in rat; type: in vivo; parameters: key to Histopathological result, Muscle tissue / Histopathological result, Heart / Histopathological result, Liver / Histopathological result, Kidney / Histopathological result, Spleen / Histopathological result, Thymus / Histopathological result, Lymph nodes / Histopathological result, Pancreas: ″—″ means no abnormality
Procedure: Wistar rats including 4 males and 4 females, with a weight difference of no more than 10%, were selected and randomly divided into two groups: solvent control group and tested substance group. The concentration used in the measurement was 2 mg/mL. Each animal was administered 3 times a day with the volume of each injection as 250 μl. The administration interval was 4 hours. Alternate administration to the left and right legs were performed. The total dosage level was 1.50 mg per rat, which was equivalent to 1200 times the maximum unit weight dosage level for human (assuming the maximum dosage level for human is 0.25 mg). Clinical observation was recorded as follows. Within 24 hours after administration, clinical observation was carried out every hour. Within 24-72 hours after administration, clinical observation was carried out once every 6 hours. Within 4-14 days after administration, clinical observation was carried out once a day. The symptoms of toxicity, the time when the symptoms appeared and disappeared, and the time of death (if occurred) were recorded. Body weight was recorded once a day after administration, and food intake was recorded every 2 days after administration. 14 days after the administration, all the remaining animals were weighed, then euthanized, and major organs were obtained by anatomy. Heart, liver, spleen, lung, kidney, thymus, lymph node, were weighted and relative organ weight (the organ weight/the subject weight×100%; also known as organ coefficient) was calculated. After anatomy, the heart, liver, spleen, lung, kidney, intestine, thymus, lymph node, muscle tissue at the injection site and other organs with pathological changes observed were stored in a fixation solution, and the pathology of each organ was examined by H&E staining. Lesion severity scores were given according to the table below.
Specifically, the body weight of male rats in the solvent control group continued to increase. […] The food intake per rat in the solvent control group within 24 hours was stable, within a range of 18-35 grams.

[4] = LNP with SARS-CoV-2 S protein mRNA, Table 9
[5] = lipid nanoparticle of the ionizable lipid (ionizable lipid/phospholipid/PEG lipid/structural lipid 50/10/1.5/38.5 %) with mRNA, Table 1
[6] = lipid nanoparticle of the ionizable lipid with mRNA, Table 1
[7] = LNP empty vector used in the rat safety study, Table 5
[8] = H&E, day 14, 1.50 mg per rat, animals 1001 and 1101
[9] = empty LNP, 1.50 mg per rat i.m., day 14, average of male, female rat
[10] = empty LNP, 1.50 mg per rat, day 14

Compound: CCCCC/C=C/C/C=C/CCCCCCCCN(CCCO)CCCCCCCC(=O)OC(CCCCCCCC)CCCCCCCC [A7]
- S protein specific IgG antibody titer [1]: higher titers of IgG antibodies
- Average fluorescence intensity, Leg (intramuscular injection) (BALB/c mice; 3 h after administration): 1683.2
- Average fluorescence intensity, Liver (tail vein injection) (BALB/c mice; 3 h after administration): 21013.1
- Average fluorescence intensity, Leg (intramuscular injection) (BALB/c mice; 6 h after administration): 2990.1
- Average fluorescence intensity, Liver (tail vein injection) (BALB/c mice; 6 h after administration): 21315.5
- Average fluorescence intensity, Leg (intramuscular injection) (BALB/c mice; 24 h after administration): 1436.4
- Average fluorescence intensity, Liver (tail vein injection) (BALB/c mice; 24 h after administration): 444.2
- Encapsulated percentage (%) [2, 4]: 97%
- PI [2, 4]: 0.060
- Size (nm) [2, 4]: 79 nm
- Size (nm) [2, 5]: 105.1 nm
- Encapsulated percentage (%) [2, 6]: 94.63%
- PDI [2, 6]: 0.175
- Elispot counted T lymphocytes secreting INFγ ([3]; dose 50 μg): 805 and 700

Compound: CCCCCCOCC(COCCCCCC)OC(=O)CCCCCCCN(CCO)CCCCCCCC(=O)OC(COCCCCCC)COCCCCCC [A18]
- S protein specific IgG antibody titer [1]: higher titers of IgG antibodies
- Total photons number, Leg (BALB/c mice; 1 μg/ mice, 3 h): 3.91E+09
- Total photons number, Leg (BALB/c mice; 1 μg/ mice, 6 h): 4.16E+09
- Total photons number, Leg (BALB/c mice; 1 μg/ mice, 24 h): 2.90E+08
- PDI [2, 7]: 0.088
- Size (nm) [2, 7]: 147 nm
- Encapsulated percentage (%) [2, 4]: 94%
- PI [2, 4]: 0.075
- Size (nm) [2, 4]: 86 nm
- Size (nm) [2, 5]: 104.8 nm
- Encapsulated percentage (%) [2, 6]: 93.58%
- PDI [2, 6]: 0.0835
- Elispot counted T lymphocytes secreting INFγ ([3]; dose 5 μg): 161 and 153
- Elispot counted T lymphocytes secreting INFγ ([3]; dose 20 μg): 241 and 251
- Overall pathological changes after the 1200 times higher dosage level of the LNP injection (Wistar rats; 1.50 mg per rat, 1200 times the maximum unit weight dosage level for human): only slight pathological changes in the lungs and legs
- Histopathological result, Heart (Wistar rats; [8]): —
- Histopathological result, Kidney (Wistar rats; [8]): —
- Histopathological result, Liver (Wistar rats; [8]): —
- Histopathological result, Lymph nodes (Wistar rats; [8]): —
- Histopathological result, Pancreas (Wistar rats; [8]): —
- Histopathological result, Spleen (Wistar rats; [8]): —
- Histopathological result, Thymus (Wistar rats; [8]): —
- Histopathological result, Lung (Wistar rats; H&E, day 14, 1.50 mg per rat, animals 1001 and 1101, cell wraps over three grid rows: Partial stromal cell hyperplasia): Partial
- Histopathological result, Muscle tissue (Wistar rats; H&E, day 14, 1.50 mg per rat, injection site, animals 1001 and 1101): —
- Body weight change of rats (Wistar rats; empty LNP, 1.50 mg per rat i.m., 14 days, FIGS. 1-2): dropped initially, then recovered to the pre-administration level on Day 4-Day 6, and continued to increase subsequently
- Food intake change of rats (Wistar rats; empty LNP, 1.50 mg per rat i.m., 14 days, FIGS. 3-4): decreased initially, and returned to normal levels on Day 4-Day 7
- Relative organ weight, Brain (Wistar rats; [9]): 0.687
- Relative organ weight, Kidney left (Wistar rats; [9]): 0.351
- Relative organ weight, Kidney right (Wistar rats; [9]): 0.356
- Relative organ weight, Liver (Wistar rats; [9]): 3.773
- Relative organ weight, Lung (Wistar rats; [9]): 0.413
- Relative organ weight, Lymph nodes (Wistar rats; [9]): 0.006
- Relative organ weight, Spleen (Wistar rats; [9]): 0.250
- Relative organ weight, Thymus (Wistar rats; [9]): 0.149
- Relative organ weight, Heart (Wistar rats; empty LNP, 1.50 mg per rat i.m., day 14, organ weight/subject weight×100%, average of male, female rat): 0.308
- Heart, liver, kidney, spleen, thymus and lymph node coefficients compared with the solvent control group (Wistar rats; [10]): did not show significant difference
- Pathological change in the lung (Wistar rats; [10]): proliferation of partial interstitial cells in the lung
- Pathological change in the muscle tissue (Wistar rats; [10]): a small amount of inflammatory cell infiltration in the muscle tissue
- Pathological changes of heart, liver, kidney, spleen, thymus, and lymph nodes (Wistar rats; empty LNP, 1.50 mg per rat, day 14, compared with solvent control): no pathological changes

Compound: CCCCCCOCC(COCCCCCC)NC(=O)CCCCCCCN(CCCO)CCCCCCCC(=O)OC(COCCCCCC)COCCCCCC [A25]
- Total photons number, Leg (BALB/c mice; 5 μg/mice, 3 h): 4.23E+08
- Total photons number, Leg (BALB/c mice; 5 μg/mice, 6 h): 2.49E+08
- Total photons number, Leg (BALB/c mice; 5 μg/mice, 24 h): 9.50E+07
- Size (nm) [2, 5]: 105.3 nm
- Encapsulated percentage (%) [2, 6]: 83.60%
- PDI [2, 6]: 0.094

Compound: CCCCCCCCCCCOC(=O)CCCCCN(CCCCCCCC(=O)OC(COCCCCCC)COCCCCCC)CCCNc1c(NC)c(=O)c1=O [A27]
- Total photons number, Leg (BALB/c mice; 1 μg/ mice, 3 h): 1.34E+09
- Total photons number, Leg (BALB/c mice; 1 μg/ mice, 6 h): 1.04E+09
- Total photons number, Leg (BALB/c mice; 1 μg/ mice, 24 h): 3.41E+08
- Size (nm) [2, 5]: 94.16 nm
- Encapsulated percentage (%) [2, 6]: 96.69%
- PDI [2, 6]: 0.13

Compound: CCCCCCOCC(COCCCCCC)OC(=O)CCCCCCCN(CCCCCCCC(=O)OC(COCCCCCC)COCCCCCC)CCCNc1c(NC)c(=O)c1=O [A28]
- Total photons number, Leg (BALB/c mice; 1 μg/ mice, 3 h): 6.50E+08
- Total photons number, Leg (BALB/c mice; 1 μg/ mice, 6 h): 4.26E+08
- Total photons number, Leg (BALB/c mice; 1 μg/ mice, 24 h): 1.83E+08
- Size (nm) [2, 5]: 91.19 nm
- Encapsulated percentage (%) [2, 6]: 89.72%
- PDI [2, 6]: 0.13

Compound: CCCCCCCCCCCOC(=O)CCCCCN(CCO)CCCCCCCC(=O)OC(CCCCCCCC)CCCCCCCC [A33, reference compound]
- S protein specific IgG antibody titer [1]: higher titers of IgG antibodies
- Average fluorescence intensity, Leg (intramuscular injection) (BALB/c mice; 3 h after administration): 1065.5
- Average fluorescence intensity, Liver (tail vein injection) (BALB/c mice; 3 h after administration): 2841.8
- Average fluorescence intensity, Leg (intramuscular injection) (BALB/c mice; 6 h after administration): 1117.9
- Average fluorescence intensity, Liver (tail vein injection) (BALB/c mice; 6 h after administration): 3144.6
- Average fluorescence intensity, Leg (intramuscular injection) (BALB/c mice; 24 h after administration): 418.8
- Average fluorescence intensity, Liver (tail vein injection) (BALB/c mice; 24 h after administration): 100.0
- Total photons number, Leg (BALB/c mice; 1 μg/ mice, 3 h): 1.41E+08
- Total photons number, Leg (BALB/c mice; 1 μg/ mice, 6 h): 2.35E+08
- Total photons number, Leg (BALB/c mice; 1 μg/ mice, 24 h): 5.84E+07
- Total photons number, Leg (BALB/c mice; 5 μg/mice, 3 h): 5.20E+08
- Total photons number, Leg (BALB/c mice; 5 μg/mice, 6 h): 4.62E+08
- Total photons number, Leg (BALB/c mice; 5 μg/mice, 24 h): 1.63E+08
- Encapsulated percentage (%) [2, 4]: 95%
- PI [2, 4]: 0.104
- Size (nm) [2, 4]: 76 nm
- Elispot counted T lymphocytes secreting INFγ ([3]; dose 4 μg): 32 and 42
- Elispot counted T lymphocytes secreting INFγ ([3]; dose 50 μg): 310 and 338

Compound: CCCCC/C=C\C/C=C\CCCCCCCCC(CCCCCCCC/C=C\C/C=C\CCCCC)OC(=O)CCCN(C)C [MC3, reference compound]
- Total photons number, Leg (BALB/c mice; 1 μg/ mice, 3 h): 3.43E+08
- Total photons number, Leg (BALB/c mice; 1 μg/ mice, 6 h): 7.41E+08
- Total photons number, Leg (BALB/c mice; 1 μg/ mice, 24 h): 2.86E+08
- Size (nm) [2, 5]: 86.7 nm
- Encapsulated percentage (%) [2, 6]: 92.00%
- PDI [2, 6]: 0.10
